The results in this text go back to ChEMBL document CHEMBL4418479, “Diamino heterocyclic carboxamide compound” (2016).

The target of assay [1] is ALK tyrosine kinase receptor (Homo sapiens) (UniProt Q9UM73). Conditions: 5 nM.
Description: Inhibition of N-terminal GST-tagged human ALK cytoplasmic domain (1058 to 1620 amino acids) expressed in baculovirus expression system at 5 nM relative to control
Another assay has as its system NCI-H2228. As to the kind of experiment: Antitumor activity against EML4-ALK fusion protein harboring human NCI-H2228 cells xenografted in NOD/SCID mouse assessed as inhibition of tumor growth at 1 mg/kg, po dosed once daily for 14 days starting 3 weeks of tumor cell inoculation and measured every other day relative to untreated control. The class given is functional.

Assay [2] is described as follows: Antitumor activity against mouse NIH-3T3/EML4-ALK cells implanted in Balb/c mouse assessed as inhibition of tumor growth at 10 mg/kg, po dosed once daily for 5 days and measured every other day relative to untreated control. The class given is functional. Conditions: NIH3T3, po, 120 h, read-out: TGI.
For assay [3], the target named is EML4-ALK (Homo sapiens, UniProt Q9UM73+Q9HC35). As to the kind of experiment: Inhibition of recombinant FLAG-tagged EML4-ALK fusion protein (unknown origin) expressed in mouse BA/F3 cells assessed as inhibition of cell growth incubated for 2 days by alamar blue dye based assay.
Chain of EML4-ALK (Homo sapiens, UniProt Q9UM73+Q9HC35) (Q9UM73 whole entry, the tested form may be a part): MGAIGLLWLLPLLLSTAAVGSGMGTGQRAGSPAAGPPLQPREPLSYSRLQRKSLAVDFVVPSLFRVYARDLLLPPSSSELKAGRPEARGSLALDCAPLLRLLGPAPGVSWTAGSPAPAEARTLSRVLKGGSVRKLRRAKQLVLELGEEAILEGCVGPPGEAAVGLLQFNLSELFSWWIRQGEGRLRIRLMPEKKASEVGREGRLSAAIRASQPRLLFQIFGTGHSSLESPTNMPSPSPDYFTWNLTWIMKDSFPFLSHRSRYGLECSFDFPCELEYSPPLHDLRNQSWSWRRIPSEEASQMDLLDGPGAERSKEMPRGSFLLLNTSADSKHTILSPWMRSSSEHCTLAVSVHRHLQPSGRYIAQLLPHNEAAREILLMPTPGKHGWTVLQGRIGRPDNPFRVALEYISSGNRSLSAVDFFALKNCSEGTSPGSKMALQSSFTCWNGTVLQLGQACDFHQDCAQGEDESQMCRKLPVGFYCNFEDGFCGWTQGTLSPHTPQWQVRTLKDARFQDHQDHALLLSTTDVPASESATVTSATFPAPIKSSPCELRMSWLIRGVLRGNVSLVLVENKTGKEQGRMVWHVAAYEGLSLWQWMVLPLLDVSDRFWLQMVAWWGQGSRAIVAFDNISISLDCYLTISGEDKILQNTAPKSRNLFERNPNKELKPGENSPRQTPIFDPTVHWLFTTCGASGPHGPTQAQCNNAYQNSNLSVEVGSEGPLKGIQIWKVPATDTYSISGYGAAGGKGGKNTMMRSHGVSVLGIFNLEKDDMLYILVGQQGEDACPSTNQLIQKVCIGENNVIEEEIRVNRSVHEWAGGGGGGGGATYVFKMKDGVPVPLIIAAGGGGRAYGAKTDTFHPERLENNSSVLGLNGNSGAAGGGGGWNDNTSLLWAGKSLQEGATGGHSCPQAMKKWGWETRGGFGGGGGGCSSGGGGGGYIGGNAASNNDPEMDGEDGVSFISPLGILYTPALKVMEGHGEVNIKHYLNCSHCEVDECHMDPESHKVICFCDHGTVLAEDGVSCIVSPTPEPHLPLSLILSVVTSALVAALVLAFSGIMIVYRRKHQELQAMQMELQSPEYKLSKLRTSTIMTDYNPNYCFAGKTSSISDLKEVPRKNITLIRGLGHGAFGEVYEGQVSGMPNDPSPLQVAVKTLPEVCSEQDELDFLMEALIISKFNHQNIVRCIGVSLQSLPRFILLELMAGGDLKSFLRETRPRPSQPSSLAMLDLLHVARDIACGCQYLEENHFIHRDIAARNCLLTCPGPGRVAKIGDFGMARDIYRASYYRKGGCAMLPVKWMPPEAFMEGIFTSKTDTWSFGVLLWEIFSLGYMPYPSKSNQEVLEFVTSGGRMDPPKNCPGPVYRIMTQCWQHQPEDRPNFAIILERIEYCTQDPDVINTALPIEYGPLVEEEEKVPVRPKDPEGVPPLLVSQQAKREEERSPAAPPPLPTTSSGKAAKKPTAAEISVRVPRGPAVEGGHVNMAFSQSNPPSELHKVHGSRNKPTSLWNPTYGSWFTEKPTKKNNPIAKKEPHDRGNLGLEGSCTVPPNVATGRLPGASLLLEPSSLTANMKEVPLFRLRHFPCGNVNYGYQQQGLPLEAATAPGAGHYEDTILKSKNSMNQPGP
Chain of EML4-ALK (Homo sapiens, UniProt Q9UM73+Q9HC35) (Q9HC35 whole entry, the tested form may be a part): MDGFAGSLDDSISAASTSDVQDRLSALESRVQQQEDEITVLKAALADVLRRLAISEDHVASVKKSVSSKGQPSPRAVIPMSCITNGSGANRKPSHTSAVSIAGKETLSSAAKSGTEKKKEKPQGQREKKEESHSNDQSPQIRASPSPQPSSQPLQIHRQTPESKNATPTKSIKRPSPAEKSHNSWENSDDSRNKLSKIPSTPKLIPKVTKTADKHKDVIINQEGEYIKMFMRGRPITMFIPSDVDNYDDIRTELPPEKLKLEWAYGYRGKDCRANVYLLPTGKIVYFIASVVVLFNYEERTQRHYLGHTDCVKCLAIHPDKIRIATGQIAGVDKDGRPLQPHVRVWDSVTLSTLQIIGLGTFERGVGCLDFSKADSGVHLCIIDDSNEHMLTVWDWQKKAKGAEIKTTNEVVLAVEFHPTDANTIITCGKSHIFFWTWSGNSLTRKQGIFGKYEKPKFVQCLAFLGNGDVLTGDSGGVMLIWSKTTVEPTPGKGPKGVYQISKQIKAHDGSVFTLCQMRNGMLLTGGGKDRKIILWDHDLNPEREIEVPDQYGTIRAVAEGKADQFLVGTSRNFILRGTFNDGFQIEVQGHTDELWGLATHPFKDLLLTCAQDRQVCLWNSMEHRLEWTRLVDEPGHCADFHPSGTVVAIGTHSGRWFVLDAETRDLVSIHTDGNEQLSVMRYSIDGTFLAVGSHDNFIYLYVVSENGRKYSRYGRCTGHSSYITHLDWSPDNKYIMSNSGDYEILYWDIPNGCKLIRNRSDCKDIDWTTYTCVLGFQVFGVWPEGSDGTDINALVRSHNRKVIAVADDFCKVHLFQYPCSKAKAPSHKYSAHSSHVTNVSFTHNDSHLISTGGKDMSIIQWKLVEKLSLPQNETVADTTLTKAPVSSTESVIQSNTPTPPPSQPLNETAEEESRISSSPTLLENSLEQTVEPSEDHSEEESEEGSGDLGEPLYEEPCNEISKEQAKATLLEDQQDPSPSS
The target of assay [4] is EML4-ALK (Homo sapiens, UniProt Q9UM73). As to the kind of experiment: Inhibition of recombinant FLAG-tagged EML4-ALK fusion protein (unknown origin) expressed in mouse BA/F3 cells using peptide substrate and ATP incubated for 1 hr by HTRF assay. For orientation: In TR-FRET formats the signal depends on donor and acceptor labels being close together.
Chain of EML4-ALK (Homo sapiens, UniProt Q9UM73) (Q9UM73 whole entry, the tested form may be a part): as the sequence (Q9UM73 whole entry, the tested form may be a part) above
Chain of EML4-ALK (Homo sapiens, UniProt Q9UM73) (Q9HC35 whole entry, further chain, the tested form may be a part): as the sequence (Q9HC35 whole entry, the tested form may be a part) above

The inhibition is the percentage by which the read-out fell short of the control. High values mean strong suppression, low ones little suppression. What is called IC50 is the concentration needed to halve the response being measured.

The source made the active and inactive calls. The calls are words filed in the database; no cut-off is given here. Some results are limits rather than exact numbers.

Chain of ALK tyrosine kinase receptor (Homo sapiens) (Q9UM73 19-1620 limits assumed): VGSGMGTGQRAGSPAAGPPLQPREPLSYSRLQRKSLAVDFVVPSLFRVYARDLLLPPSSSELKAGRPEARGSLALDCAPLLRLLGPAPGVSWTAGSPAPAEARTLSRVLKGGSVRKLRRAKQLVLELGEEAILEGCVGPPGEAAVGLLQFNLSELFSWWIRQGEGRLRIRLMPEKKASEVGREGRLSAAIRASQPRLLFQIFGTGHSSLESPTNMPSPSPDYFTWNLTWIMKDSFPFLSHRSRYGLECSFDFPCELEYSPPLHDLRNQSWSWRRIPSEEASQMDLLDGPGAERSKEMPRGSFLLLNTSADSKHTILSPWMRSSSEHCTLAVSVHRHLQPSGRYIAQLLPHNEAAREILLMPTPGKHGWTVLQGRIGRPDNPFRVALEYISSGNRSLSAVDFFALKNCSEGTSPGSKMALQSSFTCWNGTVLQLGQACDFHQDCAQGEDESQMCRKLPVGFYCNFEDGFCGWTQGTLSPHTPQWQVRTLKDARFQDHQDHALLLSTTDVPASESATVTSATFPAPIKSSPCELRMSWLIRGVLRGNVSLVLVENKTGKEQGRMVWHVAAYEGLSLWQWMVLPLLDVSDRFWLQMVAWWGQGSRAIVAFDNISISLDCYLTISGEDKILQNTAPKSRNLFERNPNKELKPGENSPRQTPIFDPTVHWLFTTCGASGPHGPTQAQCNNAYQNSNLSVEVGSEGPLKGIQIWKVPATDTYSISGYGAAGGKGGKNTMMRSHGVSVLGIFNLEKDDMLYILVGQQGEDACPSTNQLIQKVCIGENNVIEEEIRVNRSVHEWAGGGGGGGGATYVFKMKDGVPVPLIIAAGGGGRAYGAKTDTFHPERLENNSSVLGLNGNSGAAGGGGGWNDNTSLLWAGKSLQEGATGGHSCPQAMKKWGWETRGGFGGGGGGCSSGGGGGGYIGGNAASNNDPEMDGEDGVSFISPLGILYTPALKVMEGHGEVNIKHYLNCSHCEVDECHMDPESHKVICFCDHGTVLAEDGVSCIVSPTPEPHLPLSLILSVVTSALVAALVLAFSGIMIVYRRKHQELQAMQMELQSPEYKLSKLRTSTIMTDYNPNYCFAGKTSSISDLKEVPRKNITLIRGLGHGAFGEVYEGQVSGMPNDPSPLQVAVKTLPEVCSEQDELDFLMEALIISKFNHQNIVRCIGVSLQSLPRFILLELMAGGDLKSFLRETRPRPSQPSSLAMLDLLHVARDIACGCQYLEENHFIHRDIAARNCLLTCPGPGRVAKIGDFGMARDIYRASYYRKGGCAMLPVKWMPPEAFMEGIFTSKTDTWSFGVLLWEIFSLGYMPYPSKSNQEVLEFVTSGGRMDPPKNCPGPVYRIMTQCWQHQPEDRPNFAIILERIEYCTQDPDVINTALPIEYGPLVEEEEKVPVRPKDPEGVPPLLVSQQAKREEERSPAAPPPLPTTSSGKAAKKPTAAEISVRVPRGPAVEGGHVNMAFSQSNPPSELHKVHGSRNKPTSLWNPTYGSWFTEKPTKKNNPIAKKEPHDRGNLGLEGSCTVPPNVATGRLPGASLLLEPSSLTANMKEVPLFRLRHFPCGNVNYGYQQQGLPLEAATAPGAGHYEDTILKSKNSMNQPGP

Regarding `CC(C)c1nc(C(N)=O)c(Nc2ccc(N3CCN(C)CC3)cc2)nc1NC1CCOCC1`, the inhibition in assay [1] is greater than 50%.
On the same count and under the same terms, the result for `CC(C)c1nc(C(N)=O)c(Nc2ccc(N3CCN(C)CC3)cc2)nc1N[C@H]1CC[C@H](O)CC1` reads greater than 50%.
Turning to `NC(=O)c1cnc(N[C@@H]2CCCC[C@@H]2N)nc1Nc1ccc(-c2ccc(N3CCOCC3)cc2)cc1` (racemic), the TGI entry in the assay on NCI-H2228 is “inactive”.
With `CC(C)c1nc(C(N)=O)c(Nc2ccc(N3CCC(N4CCN(C)CC4)CC3)c(C(F)(F)F)c2)nc1N[C@H]1CC[C@H](O)CC1`, the inhibition in assay [1] was greater than 50%.
`CCc1nc(C(N)=O)c(Nc2ccc(N3CCN(C(C)C)CC3)c(C)c2)nc1N[C@H]1CC[C@H](O)CC1`: in assay [2], the inhibition in vivo at 10 mg/kg is 81%. This compound came in with an inhibition in assay [1] greater than 50%.
`Cc1cc(Nc2nc(N[C@H]3CC[C@H](O)CC3)c(Cl)nc2C(N)=O)ccc1N1CCC(N2CCN(C)CC2)CC1` displayed an inhibition in assay [1] greater than 50%.
As to `CCc1nc(C(N)=O)c(Nc2ccc(N3CCC(N4CCN(C)CC4)CC3)c(OC)c2)nc1NC1CCOCC1`, in assay [1], the inhibition is greater than 50%.
Same read-out and setting: then `CCc1nc(C(N)=O)c(Nc2ccc(N3CCC(N4CCN(C)CC4)CC3)cc2)nc1N[C@H]1CC[C@H](O)CC1`, with greater than 50%.
Consider `CCc1nc(C(N)=O)c(Nc2ccc3cnn(C)c3c2)nc1N[C@H]1CC[C@H](O)CC1`, for which the IC50 at EML4-ALK [3] is 76 nM.
Regarding `CCc1nc(C(N)=O)c(Nc2ccc(N3CCC(N4CCN(C)CC4)CC3)c(C)c2)nc1N[C@H]1CC[C@@](O)(C(C)C)CC1`, the IC50 at EML4-ALK [4] was 4.1 nM.
As to `CCc1nc(C(N)=O)c(Nc2ccc(N3CCC(N4CCN(C)CC4)CC3)c(C)c2)nc1NC1CCOCC1`, the inhibition in assay [1] was greater than 50%.
Take `CCc1nc(C(N)=O)c(Nc2ccc(N3CCC(N4CCN(C)CC4)CC3)cc2)nc1NC1CCOCC1`: the inhibition in vivo at 10 mg/kg in assay [2] was determined as 79%. In assay [1], the inhibition is greater than 50%.
In the case of `CCc1nc(C(N)=O)c(Nc2ccc(N3CCC(N4CCN(C)CC4)CC3)c(C(F)(F)F)c2)nc1N[C@H]1CC[C@H](O)CC1`, the inhibition in vivo at 10 mg/kg in assay [2] was found to be 81%. This compound also returned an inhibition in assay [1] greater than 50%.
For `CCc1nc(C(N)=O)c(Nc2cccc(C)c2)nc1NCCN(C)C`, in the assay on NCI-H2228, the TGI entry was “inactive”.
For the compound `CCc1nc(C(N)=O)c(Nc2ccc(N3CCC(N4CCN(C)CC4)CC3)c(C)c2)nc1N[C@H]1CC[C@](O)(C(C)C)CC1`, at EML4-ALK [4], the IC50 worked out at 2.6 nM.
Consider `CCc1nc(C(N)=O)c(Nc2ccc(N3CCN(C)CC3)c(F)c2)nc1NC1CCOCC1`, for which the inhibition in assay [1] is greater than 50%.
`CCc1nc(C(N)=O)c(Nc2ccc(N3CCC(N4CCN(C)CC4)CC3)c(C)c2)nc1N[C@H]1CC[C@](C)(O)CC1` came in with an inhibition in assay [1] greater than 50%.
As to `CCc1nc(C(N)=O)c(Nc2ccc(N3CCN(C)CC3)cc2)nc1N[C@H]1CC[C@H](O)CC1`, in assay [1], the inhibition was greater than 50%.
In the case of `CCc1nc(C(N)=O)c(Nc2ccc(N3CCC(N4CCN(C)CC4)CC3)c(C)c2)nc1N[C@H]1CC[C@](O)(CC)CC1`, the IC50 at EML4-ALK [4] was found to be 3.1 nM.
For the compound `COc1cc(Nc2nc(NC3CCOCC3)c(C(C)C)nc2C(N)=O)ccc1N1CCN(C)CC1`, the inhibition in vivo at 10 mg/kg in assay [2] worked out at 63%. This compound displayed an inhibition in assay [1] greater than 50%.
`CCc1nc(C(N)=O)c(Nc2ccc(N3CCN(C4CCN(C)CC4)CC3)c(C)c2)nc1NC1CCOCC1` displayed an inhibition in assay [1] greater than 50%.
For `CCc1nc(C(N)=O)c(Nc2ccc(N3CCC(N4CCN(C)CC4)CC3)c(C)c2)nc1N[C@H]1CC[C@H](O)CC1`, the inhibition in vivo at 10 mg/kg in assay [2] turned out to be 92%. Besides, in assay [1], the inhibition is greater than 50%.
In the case of `CC(C)c1nc(C(N)=O)c(Nc2ccc(N3CCC(N4CCN(C)CC4)CC3)cc2)nc1NC1CCOCC1`, in assay [1], the inhibition was greater than 50%. Besides, in the assay on NCI-H2228 (read-out: TGI), the inhibition in vivo at 1 mg/kg is 69%.
`CCc1nc(C(N)=O)c(Nc2ccc(N3CCC(N4CCN(C)CC4)CC3)c(C)c2)nc1N[C@H]1CC[C@@](C)(O)CC1` displayed an inhibition in assay [1] greater than 50%.
Take `CCc1nc(C(N)=O)c(Nc2ccc(N3CCC(N4CCN(C)CC4)CC3)c(C)c2)nc1N[C@H]1CC[C@@](O)(CC)CC1`: the IC50 at EML4-ALK [4] worked out at 2.8 nM.
